Test results taken from PubChem BioAssay AID540268 (Broad Institute, 2011).
“And” between values parts separate entries of the source, which are not always exact repeats. Identical values can stand only once. The source made the active and inactive calls. The rule behind the calls is not given here.

Assay: reduced viability of parasite-Hsp90 expressing yeast – ATP luminescence, 48 h, cherry-picked samples, anti-malarial Hsp90 inhibitor project, dose response (AID 540268);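 for activity change, negative = inhibition: 0% = neutral control wells and -100% = positive control wells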
Conditions: yeast expressing the parasite Hsp90, ATP luminescence; for activity change, negative = inhibition: at 26 µM (top of the series)

Row | Compound | AC50 | activity change, negative = inhibition
1 | Cc1cc(/C=C2\SC(=S)N(C)C2=O)c(C)n1-c1ccc(O)cc1 | 8.33 µM | 
2 | Cc1ccc(CSc2nc3ccsc3c(=O)n2Cc2ccccn2)cc1 | 9.62 µM | 
3 | O=C(Nc1nc(-c2ccccn2)cs1)C1COc2ccccc2O1 (stereo not given) | 8.85 µM | 
4 | O=C(O)c1ccc(N/N=C/c2ccc(-c3cccc(Cl)c3)o2)cc1 | 8.69 µM | 
5 | COc1ccc(C(=O)Nc2cc(C(=O)c3ccccc3)c(C)oc2=O)cc1 |  | 36.8% (inactive)
6 | O=S1(=O)C=C(Sc2nnc(-c3ccccc3)o2)c2ccccc21 | 3.57 µM | 
7 | CCCC(=O)NC(c1ccc(OC)cc1)c1ccc2cccnc2c1O (stereo not given) | 6.15 µM | 
8 | COc1ccc(C(=O)/C=C/c2ccc(-c3ccccc3)cc2)cc1CSCC(=O)O | 6.01 µM | 
9 | CCOC(=O)/C(=C/c1ccc(OC(=O)c2ccccc2)cc1)C(C)=O | 1.43 µM | 
10 | CCn1c(CNc2ccc(Cl)cc2)nnc1SCc1ccccc1 | 2.26 µM | 
11 | CC1CCN(C(CC(=O)c2ccccc2)C(=O)c2ccccc2)CC1 (stereo not given) | 3.28 µM | 
12 | COc1ccc(NC(=O)c2cc([N+](=O)[O-])ccc2O)cc1 | 5.24 µM | 
13 | CC(C)CC(=O)/C(=C\c1ccc(Cl)cc1Cl)n1cncn1 | 1.75 µM | 
14 | COc1ccc(C(=O)/C=C/C(=O)N(CC(=O)NC2CCCCC2)Cc2cccs2)c(O)c1 | 3.3 µM | 
15 | O=C(CC(O)(C(F)(F)F)C(F)(F)F)Nc1ccc(Cl)c(Cl)c1 | 17.5 µM | 
16 | CC(C)(C)C1C/C(=C/c2ccccn2)C(=O)/C(=C/c2ccccn2)C1 (stereo not given) | 8.29 µM | 
17 | CCOC(=O)c1c(C)oc2c1c(C(c1cccnc1)N1CCOCC1)c(O)c1ccccc12 (stereo not given) | 5.35 µM | 
18 | CCOC(=O)c1ccc(N2C(=O)C=CC2=O)cc1 | < 0.195 µM | 
19 | O=[N+]([O-])/C=C/c1cn(Cc2ccc(F)cc2)c2ccccc12 | 5.61 µM | 
20 | CC1C/C(=C/c2ccncc2)C(=O)/C(=C/c2ccncc2)C1 (stereo not given) | 2.83 µM | 
21 | CSc1nc2ccc(S(=O)(=O)NC3CCCCC3)cc2s1 | 2.92 µM | 
22 | O=C1OC(c2ccccc2)(c2cc(Br)c(O)c(Br)c2)c2ccccc21 (stereo not given) | 2.97 µM | 
23 | CCCCCCCCCCOC(=O)Cn1c(COc2ccc(C)cc2)[n+](C)c2ccccc21 | 25.8 µM | 

Row | Compound | AC50 | activity change, negative = inhibition
24 | CCOC(=O)C1=Nc2ccccc2C1=[N+]=[N-] | 0.532 µM | 
25 | Cc1ccc(N=Cc2cc(Cc3ccccc3Cl)cc([N+](=O)[O-])c2O)c(O)c1 | 0.216 µM | 
26 | Oc1c(Br)cc(Br)cc1C=NCc1ccc(F)cc1 | 8.5 µM | 
27 | Cc1cccc(N2CCN(S(=O)(=O)c3c(C)noc3/C=C/N(C)C)CC2)c1C | 8.39 µM | 
28 | Cc1ccc(Nc2nc(N)c([N+](=O)[O-])c(N3CCCC(C)C3)n2)cc1C (stereo not given) | 3.73 µM | 
29 | COc1ccc(C2=CC3=C(Br)C(=O)C(C)(O)C(=O)C3=CO2)cc1 (stereo not given) | 1.73 µM | 
30 | O=C1Nc2ccc(Br)cc2/C1=C/C1CC=CCC1 (stereo not given) | 8.99 µM | 
31 | COc1cc(/C=N/O)cc(Br)c1OCc1cccc(Cl)c1 | 8.2 µM | 
32 | CN(C)c1ccc(C=c2c3ccccc3n3c2cc(-c2ccccc2)[n+]3C)cc1 | 4.33 µM | 
33 | CCOC(=O)COc1ccc2ccccc2c1/C=C/[N+](=O)[O-] | 4.46 µM | 
34 | Oc1ccc2ccccc2c1/C=N/Nc1nnc(-c2ncc[nH]2)c2ccccc12 | 4.24 µM | 
35 | O=C(OCC(=O)C12CC3CC(CC(C3)C1)C2)c1ccc(O)cc1O | 15.6 µM | 
36 | CCOC(=O)c1c(-n2c(C)cc(C=C3C(=O)NC(=S)NC3=O)c2C)sc2c1CCCC2 | 2.99 µM | 
37 | CCCCC(=O)NC(c1cccs1)c1cc(Cl)c2cccnc2c1O (stereo not given) | 4.18 µM | 
38 | Oc1ccccc1-c1nc(NC2CCCC2)c2ccccc2n1 | 4.26 µM | 
39 | CCCCCCc1cc2cc(S(=O)(=O)c3ccc(Cl)cc3)c(=O)oc2cc1O | 0.745 µM | 
40 | O=C(Oc1ccc(Cl)c2cccnc12)c1cccnc1 | 7.85 µM | 
41 | O=C1Nc2ccc(Br)cc2C12NNc1ccccc1O2 (stereo not given) | 1.46 µM | 
42 | CC(C)N1CCN(c2ccc(OCC3COC(Cn4cncn4)(c4ccc(Cl)cc4Cl)O3)cc2)CC1 (stereo not given) | 1.12 µM | 
43 | Cc1cc2c(cc1C)CSC(c1c(O)ccc3ccccc13)SC2 | 4.26 µM | 
44 | CC(=O)NC(c1ccc(C)cc1)c1cc(Cl)c2cccnc2c1O (stereo not given) | 4.09 µM | 
45 | COc1cccc(/C=C2/CCC(CN(C)C)C2=O)c1 (stereo not given) | 7.93 µM | 
46 | Oc1c(Cl)cc(Cl)c(Cl)c1Cc1c(O)c(Cl)cc(Cl)c1Cl | 0.676 µM | 

Row | Compound | AC50 | activity change, negative = inhibition
47 | CC(C)(C)C(O)C(Oc1ccc(Cl)cc1)n1cncn1 (stereo not given) | < 0.195 µM | 
48 | O=C1CC(c2ccccc2)CC(O)=C1C=Nc1cccc(Cl)c1 (stereo not given) | 3.26 µM | 
49 | CC(C)(C)c1ccc(C(=O)CC(Sc2ccc(Cl)cc2)C(=O)O)cc1 (stereo not given) | 7.29 µM | 
50 | CCOC(=O)/C(=C\c1cccnc1)C(=O)c1cc(C(C)=O)c(Nc2ccccc2)s1 | 3.93 µM | 
51 | COc1ccc(C(=O)COC(=O)c2cc([N+](=O)[O-])ccc2N2CCOCC2)c(OC)c1 | 13.8 µM | 
52 | CN(C)c1ccc(-c2cc(O)c3ncccc3c2)cc1 |  | 26.4% (inactive)
53 | CCCCCCCCCCCCCC(=O)NO | < 0.195 µM | 
54 | CCOC(=O)C(=Cc1ccc(-n2cncn2)cc1)C(=O)OCC | 6.51 µM | 
55 | Cc1cc(N=Nc2ccccc2C(=O)O)c(C)c(C)c1O | 4.79 µM | 
56 | O=[N+]([O-])c1ccc(NC(c2ccccc2)c2ccc3cccnc3c2O)cc1 (stereo not given) | < 0.195 µM | 
57 | CC(=NNC(=S)N1CC2CCC(CC2)C1)c1cnccn1 | < 0.195 µM | 
58 | O=c1c2ccccc2nnn1CSc1nnc(COc2ccc(Cl)cc2)n1Cc1ccco1 | 3.31 µM | 
59 | Cc1cc(/C=C2\SC(=S)NC2=O)c(C)n1-c1cccc(O)c1 | 8.7 µM | 
60 | Cc1ccc(O)c(N=Nc2nccs2)c1 | 1.2 µM | 
61 | CC1CCN(C2CC(=O)N(c3ccc(Br)cc3Br)C2=O)CC1 (stereo not given) | 0.774 µM | 
62 | O=c1ccc(N=Nc2ccccc2)ccc1O | 1.48 µM | 
63 | CC(=O)N(C(C)=O)N1C(=O)/C(=C/c2ccc(Cl)cc2)SC1=S | 3.28 µM | 
64 | O=C(NCCCSc1ccccc1)c1cc(Br)ccc1O | 7.37 µM | 
65 | O=C1CC(N2CCC(c3nc4ccccc4o3)CC2)C(=O)N1c1ccc(Cl)c(C(F)(F)F)c1 (stereo not given) | 4.08 µM | 
66 | c1ccc(-c2ccc(C(c3ccccc3)n3ccnc3)cc2)cc1 (stereo not given) | 1.07 µM | 
67 | CC1(C)N=C(SCC(=O)Nc2ccc(Cl)cc2Cl)C(c2ccccc2)=N1 |  | 20.1% (inactive)
68 | C[C@@]12C(=O)Nc3ccc(Br)cc3C(=O)N1[C@H]1c3ccccc3OC[C@@H]1[C@@H]2c1ccccc1 | 0.404 µM | 
69 | CSc1ccccc1OCc1cc(C(=O)N2CCN(C)C(c3ccccc3)C2)no1 (stereo not given) | 2.25 µM | 

Row | Compound | AC50 | activity change, negative = inhibition
70 | Cc1cccc(CS(=O)(=O)c2ncc(Cl)c(C(=O)Nc3ccc(F)cc3)n2)c1 | 2.92 µM | 
71 | O=C1C=CC(=O)N1Cc1ccccc1 |  | 21.3% (inactive)
72 | Cc1ccc(-c2cc(-c3ccc(F)cc3)c(C#N)c(N)n2)o1 |  | 19.7% (inactive)
73 | CCCCCCCCCCCCCCCC[n+]1cccc(C(=O)N(CC)CC)c1 | 2.89 µM and 8.12 µM | 
74 | Cc1c(Cl)sn(-c2ccc(Cl)cc2)c1=O | < 0.195 µM | 
75 | Oc1ccc(-c2c(-c3ccsc3)sc3ccccc23)cc1 | 2.72 µM | 
76 | COc1ccc(/C=C2/CCC(CN3CCOCC3)C2=O)cc1 (stereo not given) | 0.751 µM | 
77 | CC[C@@H]1Cc2cc(O)ccc2C2=C1c1ccc(O)cc1C[C@H]2CC | 7.76 µM | 
78 | CCOC(=O)c1cc2cc(OCc3ccccc3)ccc2nc1C | 2.97 µM | 
79 | Cc1occc1-c1nnc(-c2cc([N+](=O)[O-])cc([N+](=O)[O-])c2)o1 | 2.4 µM | 
80 | COc1ccc(/C=C/C(=O)NC(=S)NNC(=O)c2cnccn2)cc1 | 0.854 µM | 
81 | C=CCn1c(O)c(C2=c3ccccc3=NC2=O)c2ccccc21 | 0.844 µM | 
82 | O=[N+]([O-])c1ccc(S(=O)(=O)c2cccc(C(F)(F)F)c2)nc1 | 2.52 µM | 
83 | CN1CCN(C(c2ccc(Cl)cc2)c2cc(Cl)c3cccnc3c2O)CC1 (stereo not given) | 0.615 µM | 
84 | O=c1c2c3c(sc2ncn1/N=C/c1ccc([N+](=O)[O-])o1)CCCC3 | 2.66 µM | 
85 | CN1CCN(C(c2ccccn2)c2cc(Cl)c3cccnc3c2O)CC1 (stereo not given) | 7.88 µM | 
86 | O=C(Nc1nc(-c2ccccn2)cs1)c1ccc(-c2ccccc2F)o1 | 8.88 µM | 
87 | CCC(=O)OCOc1ccc(/C=C2/CCC(CN(C)C)C2=O)cc1 (stereo not given) | 2.89 µM | 
88 | Oc1ccc2ccccc2c1N=Nc1nccs1 | 0.63 µM | 
89 | CC(=O)N(C)c1ccc(OCC(O)Cn2c3ccc(Cl)cc3c3cc(Cl)ccc32)cc1 (stereo not given) | 4.56 µM | 
90 | CCN1C(=O)/C(=C\C(=O)c2cccs2)c2cc(Br)ccc21 | 4.28 µM | 
91 | CCOc1ccc2c(ccc(/C=C/c3cc(C)c4cccnc4c3O)[n+]2C)c1 | 4.11 µM | 
92 | O=C1C=CC(=O)N1c1ccc2c(c1)Cc1cc(F)ccc1-2 | < 0.195 µM | 

Row | Compound | AC50 | activity change, negative = inhibition
93 | CCN(CC)C1CC(=O)N(c2cccc(Cl)c2)C1=O (stereo not given) | 0.97 µM | 
94 | Cc1ccc2nc(-c3ccc(NS(C)(=O)=O)cc3)cc(-c3ccccc3)c2c1 | 2.95 µM | 
95 | COc1ccc(NC(=S)Nc2ccc3snnc3c2)cc1 |  | -20.2% (inactive)
96 | Oc1cccc2ccc(/C=C/c3ccccc3Br)nc12 | 16.9 µM | 
97 | CSC(=S)NN=C(C)c1cccc(C)n1 | 15.6 µM | 
98 | COc1cc(OC)cc(N2C(=O)CC(N3CCC(C(=O)N4CCCCC4)CC3)C2=O)c1 (stereo not given) | 8.21 µM | 
99 | Cc1[nH]n(-c2ccccc2)c(=O)c1C(C[N+](=O)[O-])c1ccc(Br)cc1 (stereo not given) | 8.54 µM | 
100 | COc1cc(/C=C/C(=O)c2ccc([N+](=O)[O-])o2)ccc1O | 2.02 µM | 
101 | CC(=O)NC(c1ccc2ccccc2c1)c1ccc2cccnc2c1O (stereo not given) | 1.75 µM | 
102 | Cc1ccc(S(=O)(=O)N(C(=O)c2ccncc2)c2ccc(OC(=O)c3ccncc3)cc2)cc1 | 0.863 µM | 
103 | CCCCCCCC/C=C\CCCCCCCC(=O)NCCO | 9.25 µM | 
104 | CCN(CC)N=Nc1[nH]nc2nc(C)cc(C)c12 | 4.33 µM | 
105 | O=Nc1c(O)c2ccccc2c2ccccc12 | 1.57 µM | 
106 | CCOC(=O)c1ccc(NC(=O)CC2C(=O)OCCN2CC)cc1 (stereo not given) | 4.28 µM | 
107 | COc1ccc2c3c(ccc2c1)C(=O)/C(=C/O)CC3 | 4.29 µM | 
108 | O=C(c1ccc2c(=O)n(C3CCCC3)c(=S)[nH]c2c1)N1CCc2ccccc21 | 6.25 µM | 
109 | CC1=NOC(=O)/C1=C/c1ccc(-c2ccc(Cl)cc2)o1 | 2.43 µM | 
110 | COC(=O)c1ccc(N2C(=O)CC(N3CCC(O)(c4ccc(Br)cc4)CC3)C2=O)cc1 (stereo not given) | 3.37 µM | 
111 | O=C(Oc1c(Cl)cc(Cl)c2cccnc12)c1cccc([N+](=O)[O-])c1 | 16 µM | 
112 | CC(=O)N1N=C(c2ccccc2)OC1c1ccc([N+](=O)[O-])s1 (stereo not given) | 8.65 µM | 
113 | CCCCCCC(=O)N(O)C1CC(=O)N(c2ccc(Br)cc2)C1=O (stereo not given) | 2.22 µM | 
114 | CC(=NNC(=S)N1CCC1)c1ccccn1 | 1.72 µM | 
115 | Cc1ccc2c(c1)C(=O)C(=O)N2Cc1ccc(C(F)(F)F)cc1 | 7.78 µM | 
